Entries after “also recorded” stand apart in the source; their conditions may differ.
Tests used:
[1] = system: clinical strains of Staphylococcus aureus; assay: MIC of cloxacillin by growth (absorbance) in 96-well microplates, brain heart infusion (BHI) medium; type: cell-based
Description: The determination of each minimum inhibitory concentration (MIC) of cloxacillin was measured conventionally by measuring the growth of each strain in 96-well microplates in the presence of concentrations of antibiotic by absorbance.
The MIC was measured in Mueller-Hinton medium (MH; reference medium for antibiotic susceptibility testing) and brain heart infusion (BHI) medium.

[2] = system: Staphylococcus aureus strains S14 and S39; assay: Confocal microscopy of bacterial adhesion to polystyrene well bottom; type: cell-based; conditions: for effect on adhesion / biofilm formation / effect on bacterial adhesion: 4 h; for effect on bacterial adhesion: strain S39
Description: Six-well polystyrene microplates of the same nature and with exactly the same properties as the microplates used in Example 1 (Antibiofilmogram®), i.e. Costar 6-well microplates, product code 3736. The 6-well microplates were used to obtain a sufficient surface area of biofilm formation for confocal microscopy observation. The concentrations corresponding to the MIC and MICb of the strains were tested. At the same time, controls in the absence of antibiotics, strains S14 and S39 were performed. After incubation for 4 h at 37° C. (similar to the conditions used in Example 1 (Antibiofilmogram®), the bottoms of the microplates were cut out and assembled with a glass slide in order to be able to proceed to the observation under confocal microscopy. The observation conditions were as follows: Objective: ×40; Zoom: ×2; Format: 2048×2048 pixels; Laser power; Zmax and Zmin: number of images in the stack; Size between each image: 0.42 μm. “Live/Dead” staining was performed. SYTO9 stains live (and dead) bacteria, while propidium iodide specifically stains dead bacteria. The result was obtained with an analysis of 2880 images (“Slices”).
The percentage of biofilm covering the bottom surface of the well bottom as a percentage of surface cover is shown on the vertical axis. In FIG. 2A, the density of S14 bacteria adhered to the bottom of the wells was shown and analyzed. […] In particular, from 10% to more than 20% of the bottom surface of the well was covered after 4 h of incubation, which is excessive to consider a use in a therapeutic treatment at this dose.

[3] = system: Staphylococcus aureus strain S14; assay: Infected skin wound healing model in mice; type: in vivo, C57BL/6 mice
Description: The objective of these trials was to test the efficacy of cloxacillin, at selected doses, in an in vivo model of mouse skin wound infection with strains of Staphylococcus aureus. The in vivo efficacy of specific doses of cloxacillin, derived from the in vitro MIC and MICb doses, was determined by measuring bacterial load (established as a biofilm) at 12 h, Day 5 and Day 11 post-infection, and by measuring wound healing at Day 5 and Day 11 post-infection (as a wound healing score).
In this example, the mice used were 7-week-old female C57BL/6 mice weighing between 20 and 22 g from Janvier Labs, Le Genest St Isle, 53941 St Berthevin, France. The number of mice used was 5 per condition tested.
The concentration of S. aureus was adjusted in PBS to give a concentration of 10^6 CFU in 10 μL (10^8 CFU/mL). The mice, shaved on their backs, were anaesthetized with isoflurane gas and then 4 incisions were made on each side of the spine, defining 2 areas. In each mouse, only one of the areas was infected by subcutaneous injection of 10 μL of S. aureus solution, with the contralateral area serving as the uninfected control.
To test the effect of cloxacillin, 3 groups of mice received, 30 minutes pre-infection, a “preventive” treatment of 5 mg/kg cloxacillin (for mice subsequently receiving cloxacillin at 3 mg/kg) or 30 mg/kg cloxacillin (for mice subsequently receiving cloxacillin at 15 mg/kg) or sterile saline intraperitoneally. These doses were determined in an in-house PK/PD study.
The mice were then treated every two hours after the first preventive treatment for 10 hours with cloxacillin at 3 mg/kg or 15 mg/kg or saline. These doses were pre-determined to simulate blood levels between the planktonic MIC and the biofilm MIC of strain S14.
Three groups of mice were used, a first group being sacrificed at t+12 h after infection to measure the bacterial load. A second group was treated identically and sacrificed 5 days after infection and a third group, treated identically, was sacrificed 11 days after infection. Each day, a healing score is established on the animals, and on the sacrificed animals, a count of the bacteria installed is made (at D5 and D11). The score is established as follows, assigning a value between 0 and 3.
The skin at the wounds is cut, rinsed in PBS to remove non-adhered bacteria and then the tissue is homogenized in Precellys tubes using glass beads. The resulting homogenate was diluted serially, and different dilutions were spread on TSA media plates and cultured overnight at 37° C. Colonies (CFU) were quantified for each dilution and the bacterial load at the wound site was determined.

In the case of `Cc1onc(-c2ccccc2Cl)c1C(=O)N[C@@H]1C(=O)N2[C@@H]1SC(C)(C)[C@@H]2C(=O)O` [cloxacillin], the MIC ([1]; strain S02) is reported as 0.25 µg/mL, the MIC ([1]; strain S04) is reported as 0.5 µg/mL and the MIC ([1]; strain S08) is reported as 0.5 µg/mL. It also gave an MIC ([1]; strain S11) of 0.5 µg/mL, an MIC ([1]; strain S14) of 0.25 µg/mL and an MIC ([1]; strain S16) of 0.5 µg/mL. For the same molecule, the MIC ([1]; strain S19) was 0.5 µg/mL, the MIC ([1]; strain S21) was 0.5 µg/mL and the MIC ([1]; strain S22) was 0.5 µg/mL. The MIC ([1]; strain S26) was 0.25 µg/mL, the MIC ([1]; strain S27) was 0.25 µg/mL and the MIC ([1]; strain S31) was 0.5 µg/mL. For the same molecule, the MIC ([1]; strain S34) was 0.5 µg/mL, the MIC ([1]; strain S38) was 0.5 µg/mL and the MIC ([1]; strain S39) was 0.125 µg/mL. For the same molecule, the MIC ([1]; strain S40) was 0.5 µg/mL, the MIC ([1]; strain S43) was 0.25 µg/mL and the MIC ([1]; strain S44) was 0.5 µg/mL. It also gave an MIC ([1]; strain S46) of 0.125 µg/mL, an MIC ([1]; strain S47) of 0.25 µg/mL and an MIC ([1]; strain S51) of 0.25 µg/mL. It also gave an MIC ([1]; strain S58) of 0.25 µg/mL, an MIC ([1]; strain S62) of 0.5 µg/mL and an MIC ([1]; strain S63) of 0.25 µg/mL. The MIC ([1]; strain S74) was 0.25 µg/mL, the MIC ([1]; strain S83) was 0.125 µg/mL and the “effect on adhesion / biofilm formation” value ([2]; strain S14, MIC dose (0.25 μg/mL)) was “allows a decrease in bacterial adhesion but does not inhibit it; also recorded: did not inhibit the adhesion”. For the same molecule, the “bottom surface of the well covered by bacteria” value ([2]; strain S14, MIC dose (0.25 μg/mL), 4 h incubation) was 10%, the “effect on adhesion / biofilm formation” value ([2]; strain S14, MICb dose (2 μg/mL)) was “completely inhibit the adhesion” and the “effect on adhesion / biofilm formation” value ([2]; strain S14, sub-MIC dose (0.125 μg/mL, 0.5 MIC)) was “no effect on biofilm formation; also recorded: did not inhibit the adhesion”. The “effect on adhesion / biofilm formation” value ([2]; strain S14, sub-MICb dose (1 μg/mL)) was “completely inhibit the adhesion”, the “effect on bacterial adhesion” value ([2]; MIC dose (0.125 μg/mL)) was “no effect on bacterial adhesion” and the “effect on bacterial adhesion” value ([2]; MICb dose (6 μg/mL)) was “completely inhibit the adhesion”. The “effect on bacterial adhesion” value ([2]; sub-MIC dose (1/2 MIC)) was “no effect on bacterial adhesion”, the “effect on bacterial adhesion” value ([2]; sub-MICb dose (3 μg/mL)) was “completely inhibit the adhesion” and the wound-healing score ([3]; infected wounds, strain S14, MIC dose (3 mg/kg)) was “absence of cloxacillin effect on wound healing”. The wound-healing score ([3]; infected wounds, strain S14, MICb dose (15 mg/kg), up to day 6) was “decreases more rapidly”, the “decrease of bacterial load at the wound site vs control” value ([3]; strain S14, MICb dose (15 mg/kg), 12 h post-infection) was about 3 logio and the wound-healing score ([3]; uninfected wounds) was “does not have a per se effect on wound healing”.

From patent US20200237731A1, “USE OF CLOXACILLIN TO INHIBIT/PREVENT BIOFILM FORMATION” (priority 2017, published 2020)
